{
  "source": "patent US9855205B2",
  "about": "“Use of zinc coceth sulfate as an antibacterial agent against propionibacterium acnes” (PIERRE FABRE DERMO-COSMETIQUE, priority 2012, dated 2018)",
  "key": {"[1]": {"tested_on": "chorio-allantoic membrane of an embryonated chicken egg", "assay": "Het Cam test (tolerance on the mucosa)", "conditions": "1% solution, irritant effects within five minutes, tenth day of incubation", "procedure": "Zinc coceth was tested in a 1% solution."}, "[2]": {"tested_on": "Propionibacterium acnes ATCC6919", "assay": "Evaluation of the bactericidal activity against P. acnes (log reduction over contact time)", "type": "cell-based", "conditions": "Zetesol Zn at 20% (5% active zinc coceth sulfate)", "procedure": "The reduction over time of the log 10 of the number of germs in relation to initial number of germs (log R parameter) is evaluated.\nThe strain tested is Propionibacterium acnes ATCC6919.\nZetesol Zn® was tested at the concentration of 20% (i.e. 5% of active ingredient zinc coceth sulfate).\nMethod • placing into contact of the product to be tested with suspensions of P. acnes titrated at about 10^6 CFU/ml for 1, 5, 10 and 15 minutes. • Viable count after each duration of contact by inclusion of 1 ml of the sample in a culture agar (Columbia) • Incubation 72 hours at 36° C. in anaerobic conditions • Viable count of residual bacteria via direct counting.\nCalculation of the fall in log 10:\nThe calculation of the fall in log 10 of the number of CFU/ml is carried out according to the formula hereinbelow: Logarithmic reduction=LOG 10(number of CFU present at TO/number of CFU remaining at Tx)\nThe results indicated in table 1 are the average of two independent tests (except for the duration of 10 min where only 1 test was carried out). Also see FIG. 1. […]"}, "[3]": {"assay": "Irritant and sensitising potential"}, "[4]": {"assay": "pH of zinc coceth sulfate", "type": "physicochemical"}},
  "data": [
    {"substance": "Zinc coceth sulfate [Zetesol ® Zn]", "values": [
      {"measurement": "tolerance on the mucosa", "setting": "[1]", "result": "good tolerance on the mucosa"},
      {"measurement": "Log Reduction in 1 minute", "setting": "[2]; contact 1 min, average of two tests", "result": 0.63, "unit": "log"},
      {"measurement": "Log Reduction in 5 minutes", "setting": "[2]; contact 5 min, average of two tests", "result": 2.06, "unit": "log"},
      {"measurement": "Log Reduction in 10 minutes", "setting": "[2]; contact 10 min, only 1 test", "result": 3.65, "unit": "log"},
      {"measurement": "Log Reduction in 15 minutes", "setting": "[2]; contact 15 min, average of two tests", "result": ">5.04", "unit": "log"},
      {"measurement": "irritant and sensitising potential", "setting": "[3]", "result": "devoid of any irritant and sensitising potential"},
      {"measurement": "pH", "setting": "[4]", "result": 4.5}
    ]}
  ]
}
